Tested on: rat large intestine loop
Experiment: Fluid absorption in rat large intestine loop method (PGE2-stimulated)
Assay type: in vivo, rats
Details: injected into loop 30 minutes after PGE2 i.p.; measured after 1 hour
Procedure: The cecum and large intestine were extirpated from the abdomen of each of male SD (IGS) rats under pentobarbital anesthesia, and the site 5 cm away from the area just under the cecum was ligated to form a large intestine loop Immediately after the loop had been formed, PGE2 (4 μg/ml/kg, SIGMA) was intraperitoneally administered, and after 30 minutes, a medicament, which had been dissolved in 2 ml of Tyrode's solution (NaCl: 136.9 mM, KCl: 2.7 mM, CaCl2.2H2O: 1.8 mM, MgCl2.6H2O: 1.04 mM, NaH2PO4.2H2O: 0.04 mM, NaH2PO4.2H2O: 0.04 mM, glucose: 5.55 mM, NaHCO3: 11.9 mM), was injected into the prepared loop (the medicament solution was adjusted so that the pH would be 6.5 to 7.5). As a control, Tyrode's solution free of any medicament (vehicle) was administered. After 1 hour, the loop weight, the loop weight after solution removal, and the loop area were measured to calculate a solution weight per unit area remaining in the loop.
The remaining solution amount per unit area was calculated with the following equation:
Remaining solution amount per unit area(g/cm^2)=(Loop weight−Loop weight after solution removal)/Loop area.
The fluid absorption was evaluated by calculating an inhibitory rate from the following equation:
Inhibitory rate(%)=100−(Remaining solution amount per unit area under drug administration−Remaining solution amount per unit area in base(average))/(Remaining solution amount per unit area under vehicle administration(average)−Remaining solution amount per unit area in base(average))×100.
(Base=case where no stimulation is given (no treatment with PGE2))

For N[C@@H](CCC(=O)N[C@@H](CS)C(=O)NCC(=O)O)C(=O)O [γ-Glu-Cys-Gly], which “fluid absorption (inhibitory rate from remaining solution amount per unit area)” value is on record?
The value was “promoted fluid absorption”.
